Results taken from US11466005B2, “Tricyclic compounds” (JACOBIO PHARMACEUTICALS CO., LTD., priority 2018, dated 2022).

Key:
[1] = molecular target: BRD4(BD1) (Homo sapiens (Human), UniProt O60885); assay: BRD4(BD1) biochemical binding assay (HTRF); settings: biotinylated H4 derived acetylated peptide
Procedure: 1. BRD4(BD1) Binding Assays
The BRD4(BD1) biochemical binding assay was performed by Sundia MediTech Co. Ltd. in 384-well white plate (OptiPlate-384, PerkinElmer) using HTRF technology.
Briefly, 20 nL of compounds were transferred to the 384-well plate by Echo® 550 liquid handler (Labcyte, USA), then 5 μL of BRD4(BD1) (Reaction Biology Company, RD-11-157) solution or the assay buffer was added to each well. After incubating at RT for 15 min, 5 μL of the biotinylated H4 derived acetylated peptide (synthesized by GL Biochem (Shanghai) Ltd) and 10 μL of the detection solution (Cisbio Assay) were added to each well. After incubating for 1 h at RT, the HTRF signal was measure at 615 nm and 665 nm using the EnVision Multilabel Plate Reader (PerkinElmer, USA). Results were analyzed with a two-wavelength signal ratio: intensity (665 nm)/intensity (615 nm). The inhibition percentage in the presence of the compound was calculated according to the equation, Percent inhibition=(Max−Signal)/(Max−Min)*100%. Fit the data in GraphPad Prism V5.0 software (San Diego, Calif.) to obtain IC50 values with nonlinear regression analysis using equation, Y=Bottom+(Top−Bottom)/(1+10^((Log IC50−X)×HillSlope), where Y stands for inhibition percentage and X stands for compound concentration.

[2] = test system: MV-4-11 cells; assay: MV-4-11 cell proliferation assay (MTS); assay type: cell-based; settings: Homo sapiens, MV4-11, 72 h, 3 days culture
Procedure: 2. Cell Proliferation Assay
MV-4-11 cell proliferation analysis was conducted by the MIS (3-(4,5-dimethylthiazol-2-yl)-5-(3-carboxymethoxyphenyl)-2-(4-sulfophenyl)-2H-tetrazolium, inner salt) assay. Briefly, MV-4-11 cells will be cultured in IMDM (Iscove's Modified Dubecco's Medium) medium supplemented with 10% (v/v) FBS (fetal bovine serum), under the temperature of 37° C., […] and 95% humidity. The cells will be harvested respectively during the logarithmic growth period and counted with hemocytometer. The cell viability is over […] by trypan blue exclusion. Adjust MV-4-11 cells concentrations to 1.2×10^5 cells/mL with complete medium. Add 100 μL cell suspensions to 96-well plates (triplicates for each cell concentration), the final cell densities are 1.2×10^4 cells/well. The next day, dissolve the test compound with DMSO as stock solution. Dispense 5 μL of the stock solution in 1 mL culture media and add 25 μL drug media into 96-well plates. After serially diluting with culture media, the final concentration of the compound will be 0, 0.03, 0.1, 0.3, 1, 3, 10, 30, 100 nM. The plates will be cultured for 3 days, then measured by means of MTS assay. Add PMS (phenazinium methosulfate) solution to MITS solution (1:20) immediately before addition to the culture plate containing cells. Pipet 20 μL of the combined MTS/PMS Solution into each well of the 96 well assay plate containing 100 μL of cells in culture medium. Incubate the plate for 1-4 hours at 37° C. in a humidified, 5% CO2 atmosphere. Record the absorbance at 490 nm using a microplate spectrophotometer (Envision®, PeikinElmer). Fit the data using GraphPad 5.0 and obtain IC50 values.

IC50 [1] [nM]	IC50 [2] [nM]	Structure (SMILES)
17	–	Cc1cc(F)cc(C)c1C(C)n1c2cc(-c3c(C)nnn3C)cnc2c2c1c(C(C)(C)O)nn2C (centres unmarked) [Compound 27, 2-(6-(1,4-Dimethyl-1H-1,2,3-triazol-5-yl)-4-(1-(4-fluoro-2,6-dimethylphenyl)ethyl)-1-methyl-1,4-dihydropyrazolo[3′,4′:4,5]pyrrolo[3,2-b]pyridin-3-yl)propan-2-ol]
–	1.11	COC(=O)c1nn(C)c2c3ncc(-c4c(C)nnn4C)cc3n([C@H](c3ncccc3F)C3CCOCC3)c12 [Compound 7-2, (S)-Methyl 6-(1,4-dimethyl-1H-1,2,3-triazol-5-yl)-4-((3-fluoropyridin-2-yl)(tetrahydro-2H-pyran-4-yl)methyl)-1-methyl-1,4-dihydropyrazolo[3′,4′:4,5]pyrrolo[3,2-b]pyridine-3-carboxylate]
12	31.6	Cc1cccnc1C(C1CCOCC1)n1c2cc(-c3c(C)noc3C)cnc2c2c1c(C(C)(C)O)nn2C (centres unmarked) [Compound 8, 2-(6-(3,5-dimethylisoxazol-4-yl)-1-methyl-4-((3-methylpyridin-2-yl)(tetrahydro-2H-pyran-4-yl)methyl)-1,4-dihydropyrazolo[3′,4′:4,5]pyrrolo[3,2-b]pyridin-3-yl)propan-2-ol]
1.3	7.66	Cc1cccnc1C(CCC(F)(F)F)n1c2cc(-c3c(C)nnn3C)cnc2c2c1c(C(C)(C)O)nn2C (centres unmarked) [Compound 11, 2-(6-(1,4-dimethyl-1H-1,2,3-triazol-5-yl)-1-methyl-4-(4,4,4-trifluoro-1-(3-methylpyridin-2-yl)butyl)-1,4-dihydropyrazolo[3′,4′:4,5]pyrrolo[3,2-b]pyridin-3-yl)propan-2-ol]
3	–	Cc1nnn(C)c1-c1cnc2c3c(c(C(C)(C)O)nn3C)n([C@@H](c3ncccc3F)C3CCOCC3)c2c1 [Compound 30, (R)-2-(6-(1,4-dimethyl-1H-1,2,3-triazol-5-yl)-4-((3-fluoropyridin-2-yl)(tetrahydro-2H-pyran-4-yl)methyl)-1-methyl-1,4-dihydropyrazolo[3′,4′:4,5]pyrrolo[3,2-b]pyridin-3-yl)propan-2-ol]
4.6	–	Cc1noc(C)c1-c1cnc2c3c(c(C(C)(C)O)nn3C)n([C@@H](c3ncccc3F)C3CCOCC3)c2c1 [Compound 31, (R)-2-(6-(3,5-dimethylisoxazol-4-yl)-4-((3-fluoropyridin-2-yl)(tetrahydro-2H-pyran-4-yl)methyl)-1-methyl-1,4-dihydropyrazolo[3′,4′:4,5]pyrrolo[3,2-b]pyridin-3-yl)propan-2-ol]
0.55	12.7	CNC(=O)c1nn(C)c2c3ncc(-c4c(C)nnn4C)cc3n(C(c3ccccc3)C3CCOCC3)c12 (centres unmarked) [Compound 17, 6-(1,4-dimethyl-1H-1,2,3-triazol-5-yl)-N,1-dimethyl-4-(phenyl(tetrahydro-2H-pyran-4-yl)methyl)-1,4-dihydropyrazolo[3′,4′:4,5]pyrrolo[3,2-b]pyridine-3-carboxamide]
0.4	1.15	Cc1nnn(C)c1-c1cnc2c3[nH]nc(C(C)(C)O)c3n([C@H](c3ncccc3F)C3CCOCC3)c2c1 [Compound 13, (S)-2-(6-(1,4-Dimethyl-1H-1,2,3-triazol-5-yl)-4-((3-fluoropyridin-2-yl)(tetrahydro-2H-pyran-4-yl)methyl)-1,4-dihydropyrazolo[3′,4′:4,5]pyrrolo[3,2-b]pyridin-3-yl)propan-2-ol]
1.6	10.5	Cc1nc(C(C2CCOCC2)n2c3cc(-c4c(C)nnn4C)cnc3c3c2c(C(C)(C)O)nn3C)co1 (centres unmarked) [Compound 12, 2-(6-(1,4-Dimethyl-1H-1,2,3-triazol-5-yl)-1-methyl-4-((2-methyloxazol-4-yl)(tetrahydro-2H-pyran-4-yl)methyl)-1,4-dihydropyrazolo[3′,4′:4,5]pyrrolo[3,2-b]pyridin-3-yl)propan-2-ol]
0.61	25.1	Cc1nnn(C)c1-c1cnc2c3c(c(C(=O)N(C)C)nn3C)n(C(c3ccccc3)C3CCOCC3)c2c1 (centres unmarked) [Compound 15, 6-(1,4-Dimethyl-1H-1,2,3-triazol-5-yl)-N,N,1-trimethyl-4-(phenyl(tetrahydro-2H-pyran-4-yl)methyl)-1,4-dihydropyrazolo[3′,4′:4,5]pyrrolo[3,2-b]pyridine-3-carboxamide]
0.97	0.7	Cc1nnn(C)c1-c1cnc2c3c(c(C(C)(C)O)nn3C)n([C@H](c3ncccc3F)C3CCOCC3)c2c1 [Compound 7, (S)-2-(6-(1,4-dimethyl-1H-1,2,3-triazol-5-yl)-4-((3-fluoropyridin-2-yl)(tetrahydro-2H-pyran-4-yl)methyl)-1-methyl-1,4-dihydropyrazolo[3′,4′:4,5]pyrrolo[3,2-b]pyridin-3-yl)propan-2-ol]
0.48	0.89	Cc1noc(C)c1-c1cnc2c3c(c(C(C)(C)O)nn3C)n([C@H](c3ccccc3)C3CCOCC3)c2c1 [Compound 1, (S)-2-(6-(3,5-dimethylisoxazol-4-yl)-1-methyl-4-(phenyl(tetrahydro-2H-pyran-4-yl)methyl)-1,4-dihydropyrazolo[3′,4′:4,5]pyrrolo[3,2-b]pyridin-3-yl)propan-2-ol]
1.1	3.93	Cc1nnn(C)c1-c1cnc2c3c(c(C(C)(C)N)nn3C)n(C(c3ccccc3)C3CCOCC3)c2c1 (centres unmarked) [Compound 18, 2-(6-(1,4-Dimethyl-1H-1,2,3-triazol-5-yl)-1-methyl-4-(phenyl(tetrahydro-2H-pyran-4-yl)methyl)-1,4-dihydropyrazolo[3′,4′:4,5]pyrrolo[3,2-b]pyridin-3-yl)propan-2-amine]
–	15.5	CC(=O)N(c1nn(C)c2c3ncc(-c4c(C)nnn4C)cc3n(C(c3ccccc3)C3CCOCC3)c12)S(C)(=O)=O (centres unmarked) [Compound 35, N-(6-(1,4-dimethyl-1H-1,2,3-triazol-5-yl)-1-methyl-4-(phenyl(tetrahydro-2H-pyran-4-yl)methyl)-1,4-dihydropyrazolo[3′,4′:4,5]pyrrolo[3,2-b]pyridin-3-yl)-N-(methylsulfonyl)acetamide]
–	8.25	COc1ccncc1C(C1CCOCC1)n1c2cc(-c3c(C)nnn3C)cnc2c2c1c(C(C)(C)O)nn2C (centres unmarked) [Compound 25, 2-(6-(1,4-dimethyl-1H-1,2,3-triazol-5-yl)-4-((4-methoxypyridin-3-yl)(tetrahydro-2H-pyran-4-yl)methyl)-1-methyl-1,4-dihydropyrazolo[3′,4′:4,5]pyrrolo[3,2-b]pyridin-3-yl)propan-2-ol]
4.67	–	Cc1nnn(C)c1-c1cnc2c3c(c(CS(C)(=O)=O)nn3C)n(C(c3ccccc3)C3CCOCC3)c2c1 (centres unmarked) [Compound 33, 6-(1,4-dimethyl-1H-1,2,3-triazol-5-yl)-1-methyl-3-((methylsulfonyl)methyl)-4-(phenyl(tetrahydro-2H-pyran-4-yl)methyl)-1,4-dihydropyrazolo[3′,4′:4,5]pyrrolo[3,2-b]pyridine]
0.79	7.17	CCC(O)(CC)c1nn(C)c2c3ncc(-c4c(C)nnn4C)cc3n(C(c3ccccc3)C3CCOCC3)c12 (centres unmarked) [Compound 19, 3-(6-(1,4-Dimethyl-1H-1,2,3-triazol-5-yl)-1-methyl-4-(phenyl(tetrahydro-2H-pyran-4-yl)methyl)-1,4-dihydropyrazolo[3′,4′:4,5]pyrrolo[3,2-b]pyridin-3-yl)pentan-3-ol]
–	10.5	Cc1nnn(C)c1-c1cnc2c3c(c(NS(C)(=O)=O)nn3C)n([C@H](c3ccccc3)C3CCOCC3)c2c1 [Compound 28, (S)—N-(6-(1,4-dimethyl-1H-1,2,3-triazol-5-yl)-1-methyl-4-(phenyl(tetrahydro-2H-pyran-4-yl)methyl)-1,4-dihydropyrazolo[3′,4′:4,5]pyrrolo[3,2-b]pyridin-3-yl)methanesulfonamide]
–	0.77	Cc1nnn(C)c1-c1cnc2c3c(c(C(N)=O)nn3C)n(C(c3ncccc3F)C3CCOCC3)c2c1 (centres unmarked) [Compound 21, 6-(1,4-Dimethyl-1H-1,2,3-triazol-5-yl)-4-((3-fluoropyridin-2-yl)(tetrahydro-2H-pyran-4-yl)methyl)-1-methyl-1,4-dihydropyrazolo[3′,4′:4,5]pyrrolo[3,2-b]pyridine-3-carboxamide]
